Results: ChEMBL document CHEMBL1201862, “PubChem BioAssay data set” (2004)
The source made the active and inactive calls.

How the values were obtained:
[1] = biological target: T1, Short transient receptor potential channel 4 (Mus musculus, UniProt Q9QUQ5); assay: potentiation of DAMGO-evoked TRPC4 calcium signal – cell-based, HEK293 TRPC4/mu-opioid, Fluo-4 calcium, EC20 DAMGO, dose response (AID 434941); assay type: functional
T1 sequence (Q9QUQ5 whole entry): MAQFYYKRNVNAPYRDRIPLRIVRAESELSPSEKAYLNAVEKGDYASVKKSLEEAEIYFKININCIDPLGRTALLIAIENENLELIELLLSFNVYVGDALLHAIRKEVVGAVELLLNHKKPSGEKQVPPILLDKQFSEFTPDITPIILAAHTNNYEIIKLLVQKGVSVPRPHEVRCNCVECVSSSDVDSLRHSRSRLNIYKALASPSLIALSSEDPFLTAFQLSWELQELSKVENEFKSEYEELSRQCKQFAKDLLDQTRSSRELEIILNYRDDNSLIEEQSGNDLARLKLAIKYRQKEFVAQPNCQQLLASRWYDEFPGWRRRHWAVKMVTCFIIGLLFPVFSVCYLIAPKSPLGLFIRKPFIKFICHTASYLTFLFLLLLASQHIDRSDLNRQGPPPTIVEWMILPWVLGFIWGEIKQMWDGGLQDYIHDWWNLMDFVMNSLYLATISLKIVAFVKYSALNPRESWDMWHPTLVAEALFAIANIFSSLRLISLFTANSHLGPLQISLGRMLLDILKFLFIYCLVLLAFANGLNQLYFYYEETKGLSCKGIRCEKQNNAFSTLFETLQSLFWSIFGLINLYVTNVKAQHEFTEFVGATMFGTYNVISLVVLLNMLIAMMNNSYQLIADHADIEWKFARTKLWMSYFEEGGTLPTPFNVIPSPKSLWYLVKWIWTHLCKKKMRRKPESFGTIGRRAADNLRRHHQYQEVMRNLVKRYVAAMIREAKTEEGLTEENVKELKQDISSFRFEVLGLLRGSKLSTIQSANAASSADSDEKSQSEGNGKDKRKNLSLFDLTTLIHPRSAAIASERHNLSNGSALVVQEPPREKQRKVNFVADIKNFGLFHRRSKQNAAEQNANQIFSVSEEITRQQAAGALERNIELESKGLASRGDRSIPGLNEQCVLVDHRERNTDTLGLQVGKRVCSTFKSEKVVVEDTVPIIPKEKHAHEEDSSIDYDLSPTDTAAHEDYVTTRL

[2] = biological target: T2, Alkaline phosphatase, tissue-nonspecific isozyme (Homo sapiens, UniProt P05186); assay: potency against alkaline phosphatase TNAP – biochemical, luminescent, dose response, SAR follow-up (AID 1056)
T2 sequence (P05186 whole entry): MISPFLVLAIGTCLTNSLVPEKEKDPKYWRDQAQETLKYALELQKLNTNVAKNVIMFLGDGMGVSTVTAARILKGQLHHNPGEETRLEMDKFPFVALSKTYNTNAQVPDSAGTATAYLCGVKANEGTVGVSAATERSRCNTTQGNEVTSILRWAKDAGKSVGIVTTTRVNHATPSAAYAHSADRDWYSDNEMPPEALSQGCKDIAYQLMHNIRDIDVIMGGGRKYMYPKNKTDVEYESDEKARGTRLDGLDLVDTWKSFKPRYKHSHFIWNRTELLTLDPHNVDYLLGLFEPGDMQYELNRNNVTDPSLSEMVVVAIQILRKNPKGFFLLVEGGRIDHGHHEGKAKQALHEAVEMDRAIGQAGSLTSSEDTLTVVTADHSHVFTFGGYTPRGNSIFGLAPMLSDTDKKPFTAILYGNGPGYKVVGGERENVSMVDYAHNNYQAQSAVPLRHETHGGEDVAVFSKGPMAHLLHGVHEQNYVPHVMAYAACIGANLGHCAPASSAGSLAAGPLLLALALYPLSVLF

[3] = biological target: Glyceraldehyde-3-phosphate dehydrogenase (Homo sapiens, UniProt P04406)
[4] = biological target: T3, Coagulation factor XII (Homo sapiens, UniProt P00748); assay type: functional;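 also: activated factor XIIa alpha cleaving a fluorogenic AMC peptide substrate; inhibitor potency from loss of enzyme activity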
T3 sequence (P00748 whole entry): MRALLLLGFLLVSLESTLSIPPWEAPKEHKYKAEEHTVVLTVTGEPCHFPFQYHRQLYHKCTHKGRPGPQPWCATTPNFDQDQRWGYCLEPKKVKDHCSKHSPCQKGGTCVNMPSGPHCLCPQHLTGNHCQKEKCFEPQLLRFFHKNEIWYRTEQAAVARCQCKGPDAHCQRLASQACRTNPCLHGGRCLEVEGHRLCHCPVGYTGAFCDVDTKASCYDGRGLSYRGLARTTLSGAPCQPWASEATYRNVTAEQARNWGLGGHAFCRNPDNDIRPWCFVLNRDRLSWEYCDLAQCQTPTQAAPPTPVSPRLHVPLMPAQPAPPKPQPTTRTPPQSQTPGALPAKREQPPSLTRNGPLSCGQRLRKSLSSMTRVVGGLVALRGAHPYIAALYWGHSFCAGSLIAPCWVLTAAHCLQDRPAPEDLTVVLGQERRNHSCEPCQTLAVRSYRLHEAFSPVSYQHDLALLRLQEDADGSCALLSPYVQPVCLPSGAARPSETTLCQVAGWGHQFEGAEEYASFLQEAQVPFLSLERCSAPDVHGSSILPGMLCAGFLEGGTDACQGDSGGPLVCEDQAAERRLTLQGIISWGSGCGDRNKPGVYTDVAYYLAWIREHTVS

[5] = biological target: T4, Rac GTPase-activating protein 1 (Homo sapiens, UniProt Q9H0H5); assay: blockers of MgcRacGAP-driven Rac1 GTP hydrolysis – biochemical, ADP Hunter fluorescence, primary and confirmatory, confirmation (AID 624330); assay type: functional
T4 sequence (Q9H0H5 whole entry): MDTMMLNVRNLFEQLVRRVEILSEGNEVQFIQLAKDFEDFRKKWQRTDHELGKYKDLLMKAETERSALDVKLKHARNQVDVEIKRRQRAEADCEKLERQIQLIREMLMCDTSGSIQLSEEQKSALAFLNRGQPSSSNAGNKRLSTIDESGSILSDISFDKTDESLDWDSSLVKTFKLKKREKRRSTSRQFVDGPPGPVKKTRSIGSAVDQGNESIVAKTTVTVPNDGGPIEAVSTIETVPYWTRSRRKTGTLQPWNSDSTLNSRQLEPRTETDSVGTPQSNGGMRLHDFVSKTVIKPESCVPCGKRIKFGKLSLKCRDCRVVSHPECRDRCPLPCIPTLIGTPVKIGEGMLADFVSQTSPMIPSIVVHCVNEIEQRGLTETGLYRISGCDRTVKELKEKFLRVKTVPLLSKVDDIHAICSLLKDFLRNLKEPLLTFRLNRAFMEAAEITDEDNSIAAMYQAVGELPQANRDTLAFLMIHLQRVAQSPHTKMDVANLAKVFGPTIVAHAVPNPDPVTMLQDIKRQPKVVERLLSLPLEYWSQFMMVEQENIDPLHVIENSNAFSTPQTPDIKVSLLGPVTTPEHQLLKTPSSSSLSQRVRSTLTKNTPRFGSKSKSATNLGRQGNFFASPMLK

[6] = viability loss in HeLa cells – cytotoxicity control for MgcRacGAP inhibitor project, dose response (AID 624300); assay type: functional
[7] = biological target: Induced myeloid leukemia cell differentiation protein Mcl-1 (Homo sapiens, UniProt Q07820); assay type: functional
[8] = biological target: G-protein coupled receptor 55 (Homo sapiens, UniProt Q9Y2T6); assay: selective activators of receptor GPR55 – imaging, U2OS cells, beta-arrestin-GFP redistribution, primary screen (AID 1961); assay type: functional
[9] = viability loss of HPDE-C7K cells – cell-based, fluorescence, HTS, primary screen (AID 431); assay type: functional; settings: Homo sapiens
[10] = HPDE-C7 pancreatic duct cell viability loss – fluorescence, HTS (AID 430); assay type: functional, cell-based; settings: Homo sapiens
[11] = biological target: Disintegrin and metalloproteinase domain-containing protein 17 (Homo sapiens, UniProt P78536); assay: exosite inhibitors of ADAM17, dose response, biochemical (AID 743260)
[12] = biological target: G-protein coupled receptor 35 (Homo sapiens, UniProt Q9HC97); assay: inhibition of zaprinast-stimulated GPR35 beta-arrestin translocation – imaging, U2OS, beta-arrestin-GFP, zaprinast agonist, primary screen (AID 2058); assay type: functional;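 also: antagonist potency meaning inhibition of agonist-induced arrestin redistribution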
[13] = inhibition of ADAM10 peptide cleavage – biochemical, FRET peptide substrate, recombinant human ADAM10, selectivity assay for ADAM17 exosite inhibitor project, dose response (AID 743259);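 also: ADAM10 enzyme cleaving a FRET peptide substrate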
[14] = biological target: T5, DNA dC->dU-editing enzyme APOBEC-3A (Homo sapiens, UniProt P31941); assay: Dose Response confirmation of small molecule APOBEC3A DNA Deaminase Inhibitors via a fluorescence-based single-stranded DNA deaminase assay. [Related pubchem assays (depositor defined):AID493011, AID493024]; assay type: functional
[15] = biological target: T6, DNA dC->dU-editing enzyme APOBEC-3G (Homo sapiens, UniProt Q9HC16); assay type: functional
[16] = HEK-293T cell viability reduction – luminescence, B-cell screen hits, cytotoxicity control for BCR NF-kB inhibitor project, dose response (AID 489021); assay type: functional, cell-based;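 also: HEK-293T cells carrying an NF-kB luciferase reporter; cells exposed to compound for about 14 hours before viability readout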
[17] = Luminescence Cell-Based Dose Confirmation HTS to Identify Activators of 5'UTR Stem-Loop Driven Alpha-Synuclein mRNA Translation in H4 Neuroglioblastoma Cells. [Related pubchem assays: 1829 (Project Summary), 1814 (Primary HTS)]; assay type: functional
[18] = Luminescence Cell-Based Dose Response HTS to Identify Activators of Luciferase Translation or Activity in H4 […] Cells. [Related pubchem assays: 1829 (Project Summary), 1814 (Primary HTS)]; assay type: functional
[19] = tested on: H4; assay: Luminescence Cell-Based Dose Response HTS to Identify Activators of 5'UTR Stem-Loop Driven Prion Protein mRNA Translation in H4 Neuroglioblastoma Cells. [Related pubchem assays: 1829 (Project Summary), 1814 (Primary HTS)]; assay type: functional; settings: Homo sapiens
[20] = biological target: T6, DNA dC->dU-editing enzyme APOBEC-3G; assay: Dose Response confirmation of small molecule APOBEC3G DNA Deaminase Inhibitors via a fluorescence-based single-stranded DNA deaminase assay. [Related pubchem assays (depositor defined):AID493012, AID493028]; assay type: functional
[21] = biological target: T5, DNA dC->dU-editing enzyme APOBEC-3A; assay: A3A deaminase inhibition for selectivity – biochemical, dose response (AID 504722); assay type: functional
[22] = biological target: T7, Tyrosine-protein phosphatase non-receptor type 7 (Homo sapiens, UniProt P35236); assay: redox-active compounds inhibiting HePTP phosphatase – biochemical, fluorescence, mechanism study (AID 2068); assay type: functional
T7 sequence (P35236 whole entry): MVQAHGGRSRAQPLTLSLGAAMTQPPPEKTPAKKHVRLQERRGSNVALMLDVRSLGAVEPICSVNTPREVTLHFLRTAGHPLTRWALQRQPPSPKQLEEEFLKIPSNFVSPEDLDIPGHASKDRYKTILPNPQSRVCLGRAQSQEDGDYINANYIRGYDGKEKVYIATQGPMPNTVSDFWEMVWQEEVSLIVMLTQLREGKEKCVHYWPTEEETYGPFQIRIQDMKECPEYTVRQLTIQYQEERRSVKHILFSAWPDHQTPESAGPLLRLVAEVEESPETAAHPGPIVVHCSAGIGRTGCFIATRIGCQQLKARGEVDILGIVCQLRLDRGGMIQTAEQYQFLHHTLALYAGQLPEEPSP

[23] = biological target: T8, Dual specificity protein phosphatase 6 (Rattus norvegicus, UniProt Q64346); assay type: functional;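 also: confirmatory in vitro dose-response testing of MKP-3 inhibition; recombinant His-tagged MKP-3 made in E. coli BL21 with OMFP substrate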
T8 sequence (Q64346 whole entry): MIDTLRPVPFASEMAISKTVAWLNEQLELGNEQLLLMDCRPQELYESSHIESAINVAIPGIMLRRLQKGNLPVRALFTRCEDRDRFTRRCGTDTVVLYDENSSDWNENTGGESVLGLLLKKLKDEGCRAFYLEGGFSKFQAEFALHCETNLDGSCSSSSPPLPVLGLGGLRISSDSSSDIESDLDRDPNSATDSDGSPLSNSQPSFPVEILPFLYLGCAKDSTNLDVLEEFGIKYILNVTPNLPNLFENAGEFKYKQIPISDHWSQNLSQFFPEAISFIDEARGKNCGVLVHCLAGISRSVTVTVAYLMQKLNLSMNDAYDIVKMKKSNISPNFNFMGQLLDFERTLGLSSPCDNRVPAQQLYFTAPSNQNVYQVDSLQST

T6 sequence (Q9HC16 whole entry): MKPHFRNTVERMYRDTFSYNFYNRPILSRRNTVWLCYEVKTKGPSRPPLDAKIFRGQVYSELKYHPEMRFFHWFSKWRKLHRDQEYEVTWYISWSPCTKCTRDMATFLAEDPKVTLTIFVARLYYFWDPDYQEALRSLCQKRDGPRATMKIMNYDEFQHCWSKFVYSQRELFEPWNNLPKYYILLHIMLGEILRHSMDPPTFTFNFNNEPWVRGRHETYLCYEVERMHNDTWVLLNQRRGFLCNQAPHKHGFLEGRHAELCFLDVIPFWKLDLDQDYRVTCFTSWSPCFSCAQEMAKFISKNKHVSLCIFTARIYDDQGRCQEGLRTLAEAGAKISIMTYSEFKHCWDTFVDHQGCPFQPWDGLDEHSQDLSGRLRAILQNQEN
T5 sequence (P31941 whole entry): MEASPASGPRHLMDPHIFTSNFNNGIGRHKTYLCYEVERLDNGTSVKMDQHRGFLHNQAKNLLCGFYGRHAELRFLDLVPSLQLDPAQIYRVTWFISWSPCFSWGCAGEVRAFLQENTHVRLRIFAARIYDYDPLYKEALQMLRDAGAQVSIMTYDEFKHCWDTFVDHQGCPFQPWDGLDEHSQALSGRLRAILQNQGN
Sequence of G-protein coupled receptor 55 (Q9Y2T6 whole entry): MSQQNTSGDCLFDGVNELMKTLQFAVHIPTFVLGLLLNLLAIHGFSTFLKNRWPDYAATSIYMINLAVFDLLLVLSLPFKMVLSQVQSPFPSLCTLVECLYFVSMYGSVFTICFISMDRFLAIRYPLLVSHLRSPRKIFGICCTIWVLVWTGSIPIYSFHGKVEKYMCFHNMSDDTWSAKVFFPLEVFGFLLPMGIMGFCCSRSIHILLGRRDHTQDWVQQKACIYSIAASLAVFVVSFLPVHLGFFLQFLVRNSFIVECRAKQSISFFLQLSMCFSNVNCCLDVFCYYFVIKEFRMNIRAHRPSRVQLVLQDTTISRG
Sequence of Disintegrin and metalloproteinase domain-containing protein 17 (P78536 whole entry, the tested form may be a part): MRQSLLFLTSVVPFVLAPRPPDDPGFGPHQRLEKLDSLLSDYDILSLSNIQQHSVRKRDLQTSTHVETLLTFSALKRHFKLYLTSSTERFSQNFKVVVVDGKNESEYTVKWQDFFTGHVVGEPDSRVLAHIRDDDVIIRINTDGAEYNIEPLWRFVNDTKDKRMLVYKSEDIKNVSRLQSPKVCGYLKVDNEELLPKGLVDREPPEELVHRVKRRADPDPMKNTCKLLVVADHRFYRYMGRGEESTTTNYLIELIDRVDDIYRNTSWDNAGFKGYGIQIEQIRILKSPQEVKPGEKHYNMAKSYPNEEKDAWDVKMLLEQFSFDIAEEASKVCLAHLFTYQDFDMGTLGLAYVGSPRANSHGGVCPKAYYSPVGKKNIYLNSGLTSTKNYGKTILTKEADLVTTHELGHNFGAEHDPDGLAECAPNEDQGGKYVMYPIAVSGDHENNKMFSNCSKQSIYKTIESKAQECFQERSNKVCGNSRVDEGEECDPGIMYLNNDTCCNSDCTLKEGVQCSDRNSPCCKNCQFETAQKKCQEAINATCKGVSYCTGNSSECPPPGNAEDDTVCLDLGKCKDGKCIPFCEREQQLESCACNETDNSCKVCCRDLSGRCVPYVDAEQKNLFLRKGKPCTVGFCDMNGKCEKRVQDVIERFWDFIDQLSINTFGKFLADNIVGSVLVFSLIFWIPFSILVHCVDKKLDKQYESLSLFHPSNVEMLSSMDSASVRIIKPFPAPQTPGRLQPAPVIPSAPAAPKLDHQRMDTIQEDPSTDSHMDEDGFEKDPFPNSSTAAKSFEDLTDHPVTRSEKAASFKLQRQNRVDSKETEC
Sequence of Induced myeloid leukemia cell differentiation protein Mcl-1 (Q07820 whole entry): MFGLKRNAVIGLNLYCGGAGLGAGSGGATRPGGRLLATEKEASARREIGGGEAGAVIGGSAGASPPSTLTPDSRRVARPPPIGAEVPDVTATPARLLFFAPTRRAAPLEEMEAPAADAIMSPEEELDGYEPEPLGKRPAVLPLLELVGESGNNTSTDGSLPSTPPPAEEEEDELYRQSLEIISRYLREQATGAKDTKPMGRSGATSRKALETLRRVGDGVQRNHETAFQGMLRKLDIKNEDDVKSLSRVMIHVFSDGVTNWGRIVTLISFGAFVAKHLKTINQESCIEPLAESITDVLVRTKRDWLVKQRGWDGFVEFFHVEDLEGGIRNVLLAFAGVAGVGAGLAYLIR
Sequence of Glyceraldehyde-3-phosphate dehydrogenase (P04406 whole entry): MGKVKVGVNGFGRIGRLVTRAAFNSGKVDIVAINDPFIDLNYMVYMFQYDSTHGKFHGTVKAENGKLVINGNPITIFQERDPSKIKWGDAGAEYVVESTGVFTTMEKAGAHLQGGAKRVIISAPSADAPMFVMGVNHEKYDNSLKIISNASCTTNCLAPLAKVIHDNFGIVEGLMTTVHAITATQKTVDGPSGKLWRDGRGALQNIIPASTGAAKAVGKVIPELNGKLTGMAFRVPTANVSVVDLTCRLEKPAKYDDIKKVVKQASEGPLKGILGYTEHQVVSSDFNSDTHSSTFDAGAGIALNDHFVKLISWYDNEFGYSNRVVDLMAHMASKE
Sequence of G-protein coupled receptor 35 (Q9HC97 whole entry): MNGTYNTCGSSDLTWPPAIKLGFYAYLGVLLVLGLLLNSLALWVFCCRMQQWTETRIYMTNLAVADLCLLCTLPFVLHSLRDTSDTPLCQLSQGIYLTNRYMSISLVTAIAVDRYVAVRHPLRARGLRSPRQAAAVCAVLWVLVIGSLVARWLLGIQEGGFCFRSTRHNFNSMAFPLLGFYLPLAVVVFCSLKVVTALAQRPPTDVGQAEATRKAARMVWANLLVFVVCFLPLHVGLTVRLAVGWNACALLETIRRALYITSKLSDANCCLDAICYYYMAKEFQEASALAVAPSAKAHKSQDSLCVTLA

O=C(CCN1CCN(Cc2ccccc2)CC1)Nc1ccc(OCc2ccccc2)cc1
EC50 [1]: 0.13 µM (active)

O=C1c2c(Cl)c(Cl)c(Cl)c(Cl)c2C(=O)N1c1nc(Cc2ccccc2)n[nH]1
IC50 [2]: > 100 µM (inactive) | IC50 [3]: > 100 µM (not active)

O=C1NC(=S)N(C2CC2)C(=O)/C1=C/c1ccc2c(c1)CCN2CCCCl
IC50 [4]: > 50 µM (inactive) | IC50 [5]: 95.6 µM (active) | CC50 [6]: 85.4 µM (active) | IC50 [7]: 2.61 µM (active)

Cc1[nH]c2ccc(-c3nnc(SCC(=O)NCc4ccco4)n3Cc3ccccc3)cc2c1C
EC50 [8]: 5.78 µM (active)

CCCCCCn1c(N2CCN(c3ccccc3)CC2)nc2c1c(=O)n(C)c(=O)n2C
EC50 [1]: 6.68 µM (active) | EC50 [9]: > 20 µM (not active) | EC50 [10]: > 20 µM (not active)

Cc1nc(N2CCCCC2)c2c(C)c(C(=O)Nc3ccc4c(c3)OCCO4)sc2n1
IC50 [11]: > 69.5 µM (inactive) | IC50 [12]: 2.07 µM (active) | IC50 [13]: > 69.5 µM (inactive)

CCCC[N@+]12CC[C@H](CC1)C(=C(c1ccccc1)c1ccccc1)C2
IC50 [14]: 2.16 µM (active) | IC50 [15]: 2.19 µM (active)

CCC(CC)C(=O)Nc1ccc(Sc2ccc([N+](=O)[O-])cc2)cc1
IC50 [16]: > 80 µM (inactive)

CC1Cc2ccccc2N1S(=O)(=O)c1cnc(Cl)c(Cl)c1 (configuration not stated)
IC50 [16]: > 80 µM (inactive)

CC(C)(C)C(=O)c1cn(CC(=O)NCc2ccco2)c2ccccc12
EC50 [17]: 14.9 µM (active) | IC50 [14]: 3.56 µM (active) | IC50 [15]: 4.75 µM (active) | EC50 [18]: 15.9 µM (active) | EC50 [19]: 13.2 µM (active)

CCn1c(S)nnc1CSc1nc2ccccc2s1
IC50 [20]: 3.73 µM (active) | IC50 [21]: > 100 µM (inactive) | EC50 [8]: > 32 µM (inactive)

COc1cc(C(=S)NCc2ccc(Cl)c(C)c2)ccc1O
IC50 [22]: 3.06 µM (active) | IC50 [23]: > 100 µM (inactive)

CC1(C)CC2CC(C)(CN2C(=O)Nc2ccc3nc(-c4ccco4)c(-c4ccco4)nc3c2)C1 (configuration not stated)
IC50 [22]: 2.92 µM (active)

O=C(O)c1ccc(/C=N/n2cc(-c3ccccc3)nc2S)cc1
IC50 [20]: 3.33 µM (active) | IC50 [21]: > 100 µM (inactive)

COC(=O)/C(=C/Nc1ccccc1)[N+](=O)[O-]
IC50 [4]: > 50 µM (inactive)
